Numbers after ± are expanded uncertainties.
Assay: xn = mol fraction of the nth substance listed
Details: 101 kPa, Liquid; for mass density: Vibrating tube method

CCCC[n+]1ccc(C)cc1.F[B-](F)(F)F [1-butyl-4-methylpyridinium tetrafluoroborate] + CCO
Details | kinematic viscosity, 293.15 K [m2/s] | kinematic viscosity, 303.15 K [m2/s] | kinematic viscosity, 313.15 K [m2/s] | kinematic viscosity, 323.15 K [m2/s] | mass density, 293.15 K [kg/m3] | mass density, 303.15 K [kg/m3] | mass density, 313.15 K [kg/m3] | mass density, 323.15 K [kg/m3]
x1 = 0.0481 | 1.95e-06 ± 2.9e-08 | 1.61e-06 ± 2.4e-08 | 1.34e-06 ± 2e-08 | 1.14e-06 ± 1.7e-08 | 852 ± 0.31 | 843.78 ± 0.31 | 835.55 ± 0.31 | 827.17 ± 0.32
x1 = 0.0952 | 2.57e-06 ± 3.8e-08 | 2.07e-06 ± 3.1e-08 | 1.69e-06 ± 2.5e-08 | 1.41e-06 ± 2.1e-08 | 900.2 ± 0.28 | 892.25 ± 0.28 | 884.1 ± 0.29 | 875.8 ± 0.29
x1 = 0.1896 | 4.08e-06 ± 5.9e-08 | 3.17e-06 ± 4.6e-08 | 2.53e-06 ± 3.7e-08 | 2.08e-06 ± 3.1e-08 | 972.12 ± 0.26 | 964.56 ± 0.26 | 956.53 ± 0.26 | 948.48 ± 0.27
x1 = 0.2856 | 6.35e-06 ± 8.9e-08 | 4.76e-06 ± 6.9e-08 | 3.75e-06 ± 5.5e-08 | 3.03e-06 ± 4.4e-08 | 1024.13 ± 0.25 | 1016.72 ± 0.25 | 1008.96 ± 0.25 | 1001.26 ± 0.25
x1 = 0.3839 | 9.91e-06 ± 1.4e-07 | 7.25e-06 ± 1e-07 | 5.54e-06 ± 8e-08 | 4.4e-06 ± 6.4e-08 | 1063.87 ± 0.26 | 1056.57 ± 0.26 | 1049.08 ± 0.26 | 1041.7 ± 0.26
x1 = 0.5297 | 1.96e-05 ± 2.6e-07 | 1.44e-05 ± 1.9e-07 | 1.05e-05 ± 1.4e-07 | 7.4e-06 ± 1e-07 | 1107.23 ± 0.29 | 1100.11 ± 0.28 | 1092.88 ± 0.28 | 1085.83 ± 0.28
x1 = 0.5858 | 2.57e-05 ± 3.4e-07 | 1.76e-05 ± 2.3e-07 | 1.33e-05 ± 1.8e-07 | 9.33e-06 ± 1.3e-07 | 1120.51 ± 0.3 | 1113.47 ± 0.29 | 1106.29 ± 0.29 | 1099.32 ± 0.29
x1 = 0.6862 | 4e-05 ± 5.3e-07 | 2.78e-05 ± 3.7e-07 | 1.96e-05 ± 2.6e-07 | 1.36e-05 ± 1.9e-07 | 1140.91 ± 0.32 | 1133.97 ± 0.32 | 1126.84 ± 0.31 | 1119.98 ± 0.31
x1 = 0.7889 | 7.27e-05 ± 1.2e-06 | 4.37e-05 ± 5.8e-07 | 3.05e-05 ± 4.1e-07 | 2.08e-05 ± 2.8e-07 | 1158.26 ± 0.35 | 1151.41 ± 0.34 | 1144.3 ± 0.34 | 1137.51 ± 0.33
x1 = 0.8418 | 9.79e-05 ± 2.3e-06 | 5.71e-05 ± 6.8e-07 | 3.87e-05 ± 5.2e-07 | 2.59e-05 ± 3.5e-07 | 1166.08 ± 0.36 | 1159.26 ± 0.36 | 1152.16 ± 0.35 | 1145.41 ± 0.35
x1 = 0.8942 | 0.000132 ± 4.4e-06 | 7.41e-05 ± 1.2e-06 | 4.81e-05 ± 6.4e-07 | 3.15e-05 ± 4.2e-07 | 1173.2 ± 0.37 | 1166.4 ± 0.37 | 1159.32 ± 0.36 | 1152.61 ± 0.36
x1 = 0.946 | 0.000177 ± 7.6e-06 | 9.52e-05 ± 2.2e-06 | 5.94e-05 ± 7.4e-07 | 3.79e-05 ± 5.1e-07 | 1179.69 ± 0.39 | 1172.89 ± 0.38 | 1165.84 ± 0.38 | 1159.18 ± 0.37

CCCC[n+]1ccc(C)cc1.F[B-](F)(F)F [1-butyl-4-methylpyridinium tetrafluoroborate] + CO
Details | kinematic viscosity, 293.15 K [m2/s] | kinematic viscosity, 303.15 K [m2/s] | kinematic viscosity, 313.15 K [m2/s] | kinematic viscosity, 323.15 K [m2/s] | mass density, 293.15 K [kg/m3] | mass density, 303.15 K [kg/m3] | mass density, 313.15 K [kg/m3] | mass density, 323.15 K [kg/m3]
x1 = 0.0477 | 1.02e-06 ± 1.5e-08 | 8.83e-07 ± 1.4e-08 | 7.78e-07 ± 1.2e-08 | 6.88e-07 ± 1.1e-08 | 876.71 ± 0.33 | 867.94 ± 0.33 | 858.74 ± 0.33 | 849.6 ± 0.34
x1 = 0.0958 | 1.42e-06 ± 2.1e-08 | 1.2e-06 ± 1.8e-08 | 1.02e-06 ± 1.5e-08 | 8.92e-07 ± 1.4e-08 | 936.07 ± 0.28 | 927.56 ± 0.28 | 918.89 ± 0.28 | 910.02 ± 0.29
x1 = 0.2055 | 2.83e-06 ± 4.1e-08 | 2.29e-06 ± 3.3e-08 | 1.91e-06 ± 2.8e-08 | 1.62e-06 ± 2.4e-08 | 1021.53 ± 0.25 | 1013.48 ± 0.25 | 1005.4 ± 0.25 | 997.15 ± 0.26
x1 = 0.2889 | 4.57e-06 ± 6.5e-08 | 3.6e-06 ± 5.2e-08 | 2.92e-06 ± 4.2e-08 | 2.44e-06 ± 3.6e-08 | 1062.26 ± 0.23 | 1054.51 ± 0.24 | 1046.65 ± 0.23 | 1038.82 ± 0.24
x1 = 0.3846 | 7.5e-06 ± 1e-07 | 5.73e-06 ± 8.1e-08 | 4.53e-06 ± 6.5e-08 | 3.7e-06 ± 5.3e-08 | 1095.45 ± 0.24 | 1087.98 ± 0.24 | 1080.32 ± 0.24 | 1072.88 ± 0.24
x1 = 0.4866 | 1.31e-05 ± 1.7e-07 | 9.56e-06 ± 1.3e-07 | 7.3e-06 ± 1e-07 | 5.78e-06 ± 8.2e-08 | 1121.16 ± 0.25 | 1113.92 ± 0.25 | 1106.46 ± 0.25 | 1099.31 ± 0.25
x1 = 0.589 | 2.12e-05 ± 2.8e-07 | 1.58e-05 ± 2.1e-07 | 1.15e-05 ± 1.5e-07 | 8.6e-06 ± 1.2e-07 | 1140.6 ± 0.27 | 1133.51 ± 0.27 | 1126.23 ± 0.27 | 1119.29 ± 0.27
x1 = 0.7073 | 3.61e-05 ± 4.7e-07 | 2.59e-05 ± 3.4e-07 | 1.9e-05 ± 2.5e-07 | 1.3e-05 ± 1.8e-07 | 1157.8 ± 0.3 | 1150.84 ± 0.3 | 1143.72 ± 0.3 | 1136.94 ± 0.3
x1 = 0.7963 | 6.42e-05 ± 8.7e-07 | 4.11e-05 ± 5.4e-07 | 2.8e-05 ± 3.7e-07 | 1.93e-05 ± 2.6e-07 | 1168.12 ± 0.33 | 1161.22 ± 0.33 | 1154.18 ± 0.32 | 1147.48 ± 0.32
x1 = 0.8459 | 8.43e-05 ± 1.7e-06 | 5.16e-05 ± 5.7e-07 | 3.41e-05 ± 4.5e-07 | 2.29e-05 ± 3.1e-07 | 1173.12 ± 0.35 | 1166.24 ± 0.34 | 1159.23 ± 0.34 | 1152.56 ± 0.34
x1 = 0.8947 | 0.00012 ± 3.7e-06 | 6.92e-05 ± 1e-06 | 4.41e-05 ± 5.9e-07 | 2.85e-05 ± 3.8e-07 | 1177.58 ± 0.36 | 1170.73 ± 0.36 | 1163.73 ± 0.36 | 1157.09 ± 0.35
x1 = 0.9465 | 0.000168 ± 7e-06 | 9.14e-05 ± 2e-06 | 5.59e-05 ± 6.6e-07 | 3.56e-05 ± 4.8e-07 | 1181.89 ± 0.38 | 1175.06 ± 0.38 | 1168.07 ± 0.37 | 1161.45 ± 0.37

CCCC[n+]1ccccc1.F[B-](F)(F)F [1-butylpyridinium tetrafluoroborate] + CO
Details | kinematic viscosity, 293.15 K [m2/s] | kinematic viscosity, 303.15 K [m2/s] | kinematic viscosity, 313.15 K [m2/s] | kinematic viscosity, 323.15 K [m2/s] | mass density, 293.15 K [kg/m3] | mass density, 303.15 K [kg/m3] | mass density, 313.15 K [kg/m3] | mass density, 323.15 K [kg/m3]
x1 = 0.0478 | 1.08e-06 ± 1.6e-08 | 8.99e-07 ± 1.4e-08 | 7.44e-07 ± 1.2e-08 | 6.21e-07 ± 9.9e-09 | 878.25 ± 0.34 | 869.29 ± 0.34 | 860.54 ± 0.34 | 852.41 ± 0.35
x1 = 0.0959 | 1.55e-06 ± 2.3e-08 | 1.27e-06 ± 1.9e-08 | 1.03e-06 ± 1.6e-08 | 8.64e-07 ± 1.3e-08 | 940.74 ± 0.29 | 931.43 ± 0.29 | 923.47 ± 0.29 | 916 ± 0.3
x1 = 0.1952 | 2.79e-06 ± 4e-08 | 2.21e-06 ± 3.2e-08 | 1.75e-06 ± 2.6e-08 | 1.44e-06 ± 2.1e-08 | 1026.08 ± 0.25 | 1017.92 ± 0.25 | 1010.59 ± 0.25 | 1003.55 ± 0.27
x1 = 0.2938 | 4.62e-06 ± 6.6e-08 | 3.53e-06 ± 5.1e-08 | 2.73e-06 ± 4e-08 | 2.2e-06 ± 3.2e-08 | 1080.36 ± 0.24 | 1072.63 ± 0.24 | 1065.38 ± 0.24 | 1058.43 ± 0.25
x1 = 0.3916 | 7.4e-06 ± 1e-07 | 5.61e-06 ± 7.9e-08 | 4.29e-06 ± 6.2e-08 | 3.41e-06 ± 4.9e-08 | 1117.45 ± 0.25 | 1109.94 ± 0.25 | 1102.7 ± 0.25 | 1095.78 ± 0.25
x1 = 0.4921 | 1.19e-05 ± 1.6e-07 | 8.77e-06 ± 1.2e-07 | 6.56e-06 ± 9.2e-08 | 5.13e-06 ± 7.4e-08 | 1145.14 ± 0.26 | 1137.76 ± 0.26 | 1130.52 ± 0.26 | 1123.61 ± 0.26
x1 = 0.5949 | 2e-05 ± 2.6e-07 | 1.4e-05 ± 1.9e-07 | 1.03e-05 ± 1.4e-07 | 7.68e-06 ± 1.1e-07 | 1166.53 ± 0.29 | 1159.2 ± 0.28 | 1152.11 ± 0.28 | 1145.11 ± 0.28
x1 = 0.6989 | 3.26e-05 ± 4.3e-07 | 2.22e-05 ± 2.9e-07 | 1.56e-05 ± 2.1e-07 | 1.16e-05 ± 1.6e-07 | 1183.41 ± 0.31 | 1176.16 ± 0.31 | 1169.22 ± 0.31 | 1162.18 ± 0.31
x1 = 0.7972 | 5.32e-05 ± 5.9e-07 | 3.4e-05 ± 4.5e-07 | 2.31e-05 ± 3.1e-07 | 1.65e-05 ± 2.2e-07 | 1196.34 ± 0.35 | 1189.23 ± 0.34 | 1182.46 ± 0.34 | 1175.36 ± 0.34
x1 = 0.8478 | 7.2e-05 ± 1.1e-06 | 4.49e-05 ± 6e-07 | 2.97e-05 ± 4e-07 | 2.07e-05 ± 2.8e-07 | 1202.15 ± 0.36 | 1195.1 ± 0.36 | 1188.42 ± 0.36 | 1181.32 ± 0.35
x1 = 0.8978 | 9.63e-05 ± 2.2e-06 | 5.72e-05 ± 6.8e-07 | 3.68e-05 ± 4.9e-07 | 2.51e-05 ± 3.4e-07 | 1207.4 ± 0.38 | 1200.46 ± 0.38 | 1193.84 ± 0.37 | 1186.75 ± 0.37
x1 = 0.9471 | 0.00013 ± 4.3e-06 | 7.39e-05 ± 1.2e-06 | 4.61e-05 ± 6.2e-07 | 3.06e-05 ± 4.1e-07 | 1212.3 ± 0.4 | 1205.38 ± 0.4 | 1198.8 ± 0.39 | 1191.71 ± 0.39

Reference: the NIST ThermoML archive (doi:10.1021/je300557g)
